Experimental data from US20260217712A1, “SOLID STATE FORMS OF MNK INHIBITORS” (4E Therapeutics, Inc., priority 2023, published 2026).
Converted amounts (≈) assume the structure as drawn. “Also recorded” adds a separate entry of the source. Where two headings read alike, the source gives them in different places.

Legend:
Type in all cases: physicochemical
[1] = Static storage at 40° C./75% RH, XRPD and HPLC post storage
Protocol: Purity analysis was performed on an Agilent HP1100/Infinity II 1260 series system equipped with a diode array detector and using OpenLAB software. The full method details are provided below:
Poorly Crystalline Structure (I) (from Lot A, Free Form Pattern 1, 30 mg) was dissolved in 50 volumes of THF:Water 9:1 at 60° C. in 13 vials, stirring at 500 RPM (small amount of debris present). The solutions were then treated with 1.1 molar equivalents (90/180 μL) of selected counter-ions (Table 7). The resulting solutions were then cooled down to 5° C. at 0.1° C./min and were held at this temperature for 2 days. The suspensions were filtered and dried under suction for 20 min. The gummed sample was left with the cap off to promote crystallization. All solids obtained were initially analyzed by XRPD and stored in glass HPLC vials for subsequent analysis.
Any solids obtained were analyzed by XRPD, ^1H NMR, HPLC, TGA, DSC, XRPD post storage at 40° C./75% RH after 7 days & IC if necessary. Additional microscopy techniques (PLM & HSM) were used to complement the above analysis where appropriate.

[2] = Thermodynamic solubility in simulated media and buffers; details: for solubility at 24 h: 25 °C, thermodynamic from solid
Protocol: The thermodynamic solubility for Pattern 11 was determined in 3 simulated media and two buffers. […]

[3] = Gravimetric vapor sorption (GVS) and XRPD post-GVS; details: for GVS reversible water uptake 0-90% RH: 25° C.; for Post GVS XRPD form: after double cycle GVS
Protocol: Sorption isotherms were obtained using a SMS DVS Intrinsic moisture sorption analyzer, controlled by DVS Intrinsic Control software. The sample temperature was maintained at 25° C. by the instrument controls. The humidity was controlled by mixing streams of dry and wet nitrogen, with a total flow rate of 200 mL/min. The relative humidity was measured by a calibrated Rotronic probe (dynamic range of 1.0-100% RH), located near the sample. The weight change, (mass relaxation) of the sample as a function of % RH was constantly monitored by a microbalance (accuracy±0.005 mg).
(§1) Typically, 5-30 mg of sample was placed in a tared mesh stainless steel basket under ambient conditions. The sample was loaded and unloaded at 40% RH and 25° C. (typical room conditions). A moisture sorption isotherm was performed as outlined below (2 scans per complete cycle). The standard isotherm was performed at 25° C. at 10% RH intervals over a 0-90% RH range. Typically, a double cycle (4 scans) was carried out. Data analysis was carried out within Microsoft Excel using the DVS Analysis Suite.
Sorption isotherms were obtained using a Hiden IGASorp moisture sorption analyser, controlled by Isochema HISorp software. The sample temperature was maintained at 25° C. by a Grant LT ecocool 150 re-circulating water bath. The humidity was controlled by mixing streams of dry and wet nitrogen, with a total flow rate of 250 ml·min-1. The relative humidity was measured by a calibrated Vaisala RH probe (dynamic range of 0-95% RH), located near the sample. The weight change, (mass relaxation) of the sample as a function of % RH was constantly monitored by the microbalance (accuracy±0.001 mg).
as §1, with “Typically, 20-30” for “Typically, 5-30”, “scans giving 1” for “scans per”, “within the Isochema HISorp 2019 software and exported into” for “within”, “Excel to present accordingly.” for “Excel using the DVS Analysis Suite.”

[4] = Static storage at 40° C./75% RH, XRPD and HPLC post storage; details: 7 days, listed as 34-1
[5] = Drying / standing under ambient conditions, XRPD; details: listed as 34-1
[6] = Static storage at 25° C./97% RH, XRPD and HPLC post storage; details: 10 days
[7] = Competitive slurries of Pattern 3 and Pattern 11, XRPD; details: for XRPD after 7 days / XRPD after 17 days: competitive slurry, solvent and temperature per sample; for XRPD after 7 days: 20 vol
Protocol: A solid mixture of Structure (I) Pattern 3 (from Lot B, 300 mg) and Pattern 11 (Sample 35-1, 300 mg) was mixed for 3 hours using a turbula mixer.
The solid mixture (30 mg) was suspended in solvent (dried with molecular sieves, 600 μL, 20 vol) and either stirred in the fridge, shaken at RT or 55° C. After 7 days, an aliquot of each suspension was analyzed by XRPD. Samples that were still a mixture of forms were placed back into fridge/shakers for a further 10 days and re-analyzed (results shown in Table 36).
Competitive slurry experiments at 55° C., along with one at 5° C., were repeated using a saturated solution as the solvent mixture to minimize dissolution that may have occurred at temperatures other than room temperature.
A saturated solution of THF/Water (9:1) (5 mL) with Structure (I) (from Lot B) was equilibrated at 55° C. overnight in a shaker. The solution was filtered using 0.45 μm nylon filter before use.
A solid mixture of Pattern 3 and Pattern 11 (30 mg) was suspended in the saturated solution (600 μL, 20 vol) and either stirred in the fridge (5° C.) or shaken at 55° C. After 1 day, aliquots of the suspensions were analyzed by XRPD. Both samples were placed back into fridge/shaker. After a total of 11 days, the samples were removed from fridge/shaker. Sample 38-2 was filtered before XRPD, Sample 38-1 was pipetted onto the XRPD holder and allowed to dry before analysis (solid passed through filter).

[8] = Drying / standing under ambient conditions, XRPD; details: ambient conditions
Protocol: Structure (I) (Sample 28-2, 30 mg, Poorly Crystalline Pattern 3) was wetted with solvent (300 μL, 10 vol) according to Table 30 and put into a shaker at 50° C. for 6 days. The suspensions were isolated using filter cartridges and positive pressure. A XRPD pattern was collected for each sample. […] This characterization is presented and discussed in Examples detailed herein. (see, e.g., FIG. 75)

[9] = Gravimetric solubility measurements from competitive slurry samples; details: organic solvent or mixture, thermodynamic from solid, room temperature
Source text: In order to determine that Pattern 3 was not simply being dissolved in the solvent systems when the solid was introduced, gravimetric solubility measurements were made using the samples at room temperature. […] There was insufficient solubility at room temperature to dissolve the Pattern 3 present in the competitive slurry experiments.

pKa measurements = assay: pKa measurements
[10] = Slurry in pH 2.0 buffer, XRPD; details: pH 2.0 chloride buffer, RT, 5 days
Protocol: Structure (I) (from Lot B, 30 mg) was suspended in pH 2.0 buffer (chloride buffer, 3 mL) and placed in a shaker at RT. After 1 day, the sample was filtered and analyzed by XRPD. The sample was re-suspended in pH 2.0 buffer (2 mL) and returned to shaking at RT for 4 days. The sample was aliquoted and analyzed by XRPD, before filtration and drying under suction.

[11] = Heating for 24 h in a vacuum tray dryer, XRPD and HPLC
Protocol: A polymorphism study of Structure (I) was performed at 75° C., 100° C., 175° C., and 250° C. About 500 mg of Structure (I) Pattern 3 was heated at 75° C. for 24 h in a vacuum tray dryer (VTD) under reduced pressure. Obtained material after heating at 75° C. was analyzed for purity by HPLC and XPRD analysis. […] Additionally, about 500 mg of Structure (I) was heated at 75° C. for 24 h in a VTD under reduced pressure. After 24 h, material was cooled to 25-30° C. under inert atmosphere and analyzed for purity by HPLC and XRPD.
About 500 mg of Structure (I) was heated at 100° C. for 24 h in a VTD under reduced pressure. Obtained material after heating at 100° C. was analyzed for purity by HPLC and XPRD. […] Additionally, about 500 mg of Structure (I) was heated at 100° C. for 24 h in a VTD under reduced pressure. After 24 h material was cooled to 25-30° C. under inert atmosphere. Obtained material was analyzed for purity by HPLC and XPRD.
Obtained material after heating at 175° C. was analyzed for purity by HPLC and XPRD. […] After 24 h, material was cooled to 25-30° C. under inert atmosphere. Obtained material was analyzed for purity by HPLC and XPRD.
About 500 mg of Structure (I) was heated at 250° C. for 24 h in a VTD. Obtained material after heating at 250° C. was analyzed for purity by HPLC and XPRD.

Structure (SMILES): Cc1cc(Nc2cc(N)ncn2)c(=O)n2c1C(=O)NC21CCC2(CC2)CC1 [Pattern 11]
- stability to storage at 40° C./75% RH (in words) ([1]; 40° C./75% RH (elevated temperature and humidity)): reasonable stability; also recorded: good stability
- XRPD form after storage at 40° C./75% RH, 3 days ([1]; 40° C./75% RH, 3 days): 3 days: No change in form-Pattern 11
- Static storage 40° C./75% RH, form ([1]; 40° C./75% RH, 10 days): form and purity was found to stable
- Static storage 40° C./75% RH, purity ([1]; 40° C./75% RH, 10 days): Purity: 98.0%
- Static storage 40° C./75% RH, form ([1]; 40° C./75% RH, 10 days, listed as 35-1): 10 days: No change in form-Pattern 11
- Solubility FaSSGF ([2]; FaSSGF, 25° C./24 h, listed as 35-1): FaSSGF-0.078 mg/mL
- solubility at 24 h ([2]; FaSSIF, fassif, FaSSIF, 25° C./24 h, read-out: Solubility FaSSIF): 1.4 µg/mL (≈ 0.00382 mM)
- solubility at 24 h ([2]; FeSSIF, fessif, FeSSIF, 25° C./24 h, read-out: Solubility FeSSIF): 4 µg/mL (≈ 0.0109 mM)
- Solubility pH 2.0 ([2]; pH 2.0 buffer, 25° C./24 h, listed as 35-1): pH 2.0-0.052 mg/mL
- solubility at 24 h ([2]; pH 7.4 buffer, pH 7.4, aqueous buffer, pH 7.4 buffer, 25° C./24 h, read-out: Solubility pH 7.4): 1 µg/mL (≈ 0.00273 mM)
- solubility in simulated fluids and buffers (in words) ([2]; simulated media and buffers): practically insoluble
- hygroscopicity (in words) [3]: only slightly hygroscopic
- GVS reversible water uptake 0-90% RH [3]: 0.3 wt %
- GVS reversible water uptake 0-90% RH ([3]; listed as 35-1): 0.3 wt % reversible water uptake 0-90% RH with a
- Post GVS XRPD form [3]: remained Pattern 11
- Post GVS XRPD form ([3]; listed as 35-1): Post GVS XRPD: Pattern 11 + peak at 7.7°
- hygroscopicity (in words) ([3]; listed as Structure (I) Pattern 11): only slightly hygroscopic
- XRPD post storage at 40° C./75% RH [4]: 7 days: Pattern 11 + extra peaks (not
- form under ambient conditions (XRPD after ambient overnight) [5]: Pattern 11
- Static storage 25° C./97% RH, form [6]: 10 days: No change in form-Pattern 11
- Static storage 25° C./97% RH, purity [6]: Purity: 98.1%
- form conversion in competitive slurries (in words) [7]: no conversion of Pattern 11 to Pattern 3
- form under ambient conditions (XRPD after ambient overnight) [8]: stable at ambient conditions; also recorded: stable at room temperature

Structure (SMILES): Cc1cc(Nc2cc(N)ncn2)c(=O)n2c1C(=O)NC21CCC2(CC2)CC1 [Pattern 36-8]
- solubility ([9]; Toluene): 2300 µg/mL (≈ 6.28 mM)
- XRPD after 7 days [7]: Patterns 3 and 11
- XRPD after 17 days [7]: Patterns 3 and 11

Structure (SMILES): Cc1cc(Nc2cc(N)ncn2)c(=O)n2c1C(=O)NC21CCC2(CC2)CC1 [Pattern 36-9]
- solubility ([9]; IPA/Water (95:5)): 3800 µg/mL (≈ 10.4 mM)
- XRPD after 7 days [7]: Patterns 3 and 11
- XRPD after 17 days [7]: Patterns 3 and 11

Structure (SMILES): Cc1cc(Nc2cc(N)ncn2)c(=O)n2c1C(=O)NC21CCC2(CC2)CC1 [Pattern 36-10]
- solubility ([9]; THF/Water (9:1)): 8100 µg/mL (≈ 22.1 mM)
- XRPD after 7 days [7]: Patterns 3 and 11
- XRPD after 17 days [7]: Patterns 3 and 11

Structure (SMILES): Cc1cc(Nc2cc(N)ncn2)c(=O)n2c1C(=O)NC21CCC2(CC2)CC1 [Structure (I), 6″-((6-aminopyrimidin-4-yl)amino)-8″-methyl-2″H-dispiro[cyclopropane-1, l′-cyclohexane-4′,3″-imidazo[1,5-a]pyridine]-1″,5″-dione]
- pKa (pKa measurements; read-out: acidic pKa (acidic center)): 11.5
- pKa (pKa measurements; read-out: basic pKa): 4.73
- XRPD form after slurry in pH 2.0 buffer [10]: Pattern 1
- HPLC purity change after heating at 100° C. ([11]; 100° C., reduced pressure): no change
- XRPD form after heating at 100° C. ([11]; 100° C., reduced pressure): remained as Pattern 3
- HPLC purity change after heating at 175° C. ([11]; 175° C., reduced pressure): no change
- XRPD form after heating at 175° C. ([11]; 175° C., reduced pressure): converted to Pattern 11
- XRPD form after heating at 250° C. ([11]; 250° C.): converted to Pattern 11
